Measurements from patent US20260327204A1, “DEGRADERS OF CYCLIN-DEPENDENT KINASE 12/13, COMPOSITIONS, AND USES THEREOF” (ZHEJIANG UNIVERSITY, priority 2023, published 2026).
Where two headings read alike, the source gives them in different places.

Experiments:
[1] = Liver microsome stability, monkey; type: in vitro ADME; settings: liver microsomes
Description: (§1) • Compounds: Ketanserin, Formula 18, Formula 45 • Liver microsomes: Human liver microsomes (purchased from BioreclamationIVT); Dog, mouse, rat, and monkey liver microsomes (purchased from Xenotech)
(§2) Preparation of 500 μM compound solution: Add 5 μL of 10 mM compound solution and 95 μL of DMSO to an EP tube.
(§3) Preparation of solution containing 0.75 mg/mL liver microsomes and 1.5 μM compound: Add 1.5 μL of the 500 μM compound solution, 18.75 μL of the 20 mg/mL liver microsome solution, and 479.75 μL of PBS to an EP tube.
(§4) Preparation of 6 mM NADPH solution: Dissolve 5 mg of NADPH in 1 mL of PBS solution.
(§5) Add 30 μL of the solution containing 0.75 mg/mL liver microsomes and a concentration gradient of the compound to a 96-well plate. Add 15 μL of the 6 mM NADPH solution and 150 μL of a 1:1 acetonitrile:methanol solution containing an internal standard (IS). Vortex and centrifuge at 6,000 rpm for 10 min. 80 μL of the supernatant from each concentration sample is transferred to a 96-well plate containing 140 μL of pure water for LC/MS detection (injection volume of […]). […]
(§6) 80 μL of the supernatant from each well is transferred to a 96-well plate containing 140 μL of pure water for LC/MS detection (injection volume of […]). The compound concentration value is determined by comparing the corresponding mass spectrometry peak area with the standard curve. […]

[2] = target: CDK12 (Homo sapiens, UniProt Q9NYV4); assay: Western blot degradation of CDK12 (Example 2); type: cell-based; parameters: degradation of CDK12/13 protein in leukemia cells KASUMI-1, MV4-11, and Jurkat; endogenous in cells
Chain of CDK12 (Q9NYV4 whole entry): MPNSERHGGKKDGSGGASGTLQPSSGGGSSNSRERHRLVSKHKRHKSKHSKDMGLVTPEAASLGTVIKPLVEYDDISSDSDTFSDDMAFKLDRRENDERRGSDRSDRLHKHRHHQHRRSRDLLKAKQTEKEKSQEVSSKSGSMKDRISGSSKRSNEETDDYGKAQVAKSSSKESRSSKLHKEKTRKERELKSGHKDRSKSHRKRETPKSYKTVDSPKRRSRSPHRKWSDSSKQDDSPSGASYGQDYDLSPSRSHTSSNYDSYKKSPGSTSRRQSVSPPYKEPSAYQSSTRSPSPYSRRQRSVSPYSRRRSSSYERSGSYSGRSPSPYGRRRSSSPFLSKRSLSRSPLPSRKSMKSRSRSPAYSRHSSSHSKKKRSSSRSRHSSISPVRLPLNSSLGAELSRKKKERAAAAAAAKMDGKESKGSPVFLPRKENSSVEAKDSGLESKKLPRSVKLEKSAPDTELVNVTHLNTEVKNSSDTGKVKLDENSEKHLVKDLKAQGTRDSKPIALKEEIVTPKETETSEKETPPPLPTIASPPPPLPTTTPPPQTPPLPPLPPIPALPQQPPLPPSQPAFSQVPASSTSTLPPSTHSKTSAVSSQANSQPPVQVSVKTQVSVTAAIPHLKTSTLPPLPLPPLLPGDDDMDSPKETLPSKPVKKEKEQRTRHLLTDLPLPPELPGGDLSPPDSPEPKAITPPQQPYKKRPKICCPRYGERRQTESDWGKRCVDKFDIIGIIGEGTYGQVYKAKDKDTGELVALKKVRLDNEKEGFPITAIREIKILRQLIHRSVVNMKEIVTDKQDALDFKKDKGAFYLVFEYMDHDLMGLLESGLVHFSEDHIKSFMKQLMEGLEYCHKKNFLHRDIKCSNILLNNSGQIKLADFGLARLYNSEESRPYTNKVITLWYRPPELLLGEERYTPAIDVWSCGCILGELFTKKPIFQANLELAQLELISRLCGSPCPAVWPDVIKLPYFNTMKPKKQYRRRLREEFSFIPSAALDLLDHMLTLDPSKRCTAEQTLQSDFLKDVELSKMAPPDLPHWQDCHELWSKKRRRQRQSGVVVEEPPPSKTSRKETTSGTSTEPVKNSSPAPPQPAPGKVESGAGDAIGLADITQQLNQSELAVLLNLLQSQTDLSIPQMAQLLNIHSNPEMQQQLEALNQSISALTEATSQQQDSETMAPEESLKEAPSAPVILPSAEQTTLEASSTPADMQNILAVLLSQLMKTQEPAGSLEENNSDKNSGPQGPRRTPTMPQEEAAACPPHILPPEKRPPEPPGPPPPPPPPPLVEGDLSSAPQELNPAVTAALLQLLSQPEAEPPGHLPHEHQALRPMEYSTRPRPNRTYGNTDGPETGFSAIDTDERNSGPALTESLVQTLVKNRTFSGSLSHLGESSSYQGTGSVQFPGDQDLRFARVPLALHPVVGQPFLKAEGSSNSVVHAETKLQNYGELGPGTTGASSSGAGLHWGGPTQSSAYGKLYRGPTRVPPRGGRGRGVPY
Chain of CDK12 (O75909 whole entry partner): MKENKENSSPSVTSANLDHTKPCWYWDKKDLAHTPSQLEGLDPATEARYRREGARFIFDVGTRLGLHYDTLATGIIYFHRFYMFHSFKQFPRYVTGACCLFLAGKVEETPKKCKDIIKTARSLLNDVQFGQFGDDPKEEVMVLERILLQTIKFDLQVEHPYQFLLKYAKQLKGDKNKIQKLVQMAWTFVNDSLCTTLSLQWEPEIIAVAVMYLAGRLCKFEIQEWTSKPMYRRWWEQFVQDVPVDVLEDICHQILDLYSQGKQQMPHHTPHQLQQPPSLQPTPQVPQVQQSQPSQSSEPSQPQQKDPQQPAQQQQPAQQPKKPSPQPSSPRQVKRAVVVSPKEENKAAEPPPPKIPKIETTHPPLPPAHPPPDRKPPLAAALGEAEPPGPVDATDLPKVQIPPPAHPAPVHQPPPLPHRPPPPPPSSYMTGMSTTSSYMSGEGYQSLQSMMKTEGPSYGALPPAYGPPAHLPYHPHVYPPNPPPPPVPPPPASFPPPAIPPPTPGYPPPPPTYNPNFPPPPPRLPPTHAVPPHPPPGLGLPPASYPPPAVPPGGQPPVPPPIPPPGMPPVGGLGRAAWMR
Method in brief: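 Leukemia lines KASUMI-1, MV4-11, Jurkat, plus MDA-MB-231 for a concentration series, treated at 0.01–3 μM for 3–48 h at 37 °C against DMSO control. Lysates in 4% SDS; CDK12/13 band intensity normalized to β-Actin or GAPDH to give degradation rate.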

[3] = target: T1, CDK13 (Homo sapiens, UniProt Q14004); assay: Western blot degradation of CDK13 (Example 2); type: cell-based; parameters: degradation of CDK12/13 protein in leukemia cells KASUMI-1, MV4-11, and Jurkat; endogenous in cells
T1 sequence (Q14004 whole entry): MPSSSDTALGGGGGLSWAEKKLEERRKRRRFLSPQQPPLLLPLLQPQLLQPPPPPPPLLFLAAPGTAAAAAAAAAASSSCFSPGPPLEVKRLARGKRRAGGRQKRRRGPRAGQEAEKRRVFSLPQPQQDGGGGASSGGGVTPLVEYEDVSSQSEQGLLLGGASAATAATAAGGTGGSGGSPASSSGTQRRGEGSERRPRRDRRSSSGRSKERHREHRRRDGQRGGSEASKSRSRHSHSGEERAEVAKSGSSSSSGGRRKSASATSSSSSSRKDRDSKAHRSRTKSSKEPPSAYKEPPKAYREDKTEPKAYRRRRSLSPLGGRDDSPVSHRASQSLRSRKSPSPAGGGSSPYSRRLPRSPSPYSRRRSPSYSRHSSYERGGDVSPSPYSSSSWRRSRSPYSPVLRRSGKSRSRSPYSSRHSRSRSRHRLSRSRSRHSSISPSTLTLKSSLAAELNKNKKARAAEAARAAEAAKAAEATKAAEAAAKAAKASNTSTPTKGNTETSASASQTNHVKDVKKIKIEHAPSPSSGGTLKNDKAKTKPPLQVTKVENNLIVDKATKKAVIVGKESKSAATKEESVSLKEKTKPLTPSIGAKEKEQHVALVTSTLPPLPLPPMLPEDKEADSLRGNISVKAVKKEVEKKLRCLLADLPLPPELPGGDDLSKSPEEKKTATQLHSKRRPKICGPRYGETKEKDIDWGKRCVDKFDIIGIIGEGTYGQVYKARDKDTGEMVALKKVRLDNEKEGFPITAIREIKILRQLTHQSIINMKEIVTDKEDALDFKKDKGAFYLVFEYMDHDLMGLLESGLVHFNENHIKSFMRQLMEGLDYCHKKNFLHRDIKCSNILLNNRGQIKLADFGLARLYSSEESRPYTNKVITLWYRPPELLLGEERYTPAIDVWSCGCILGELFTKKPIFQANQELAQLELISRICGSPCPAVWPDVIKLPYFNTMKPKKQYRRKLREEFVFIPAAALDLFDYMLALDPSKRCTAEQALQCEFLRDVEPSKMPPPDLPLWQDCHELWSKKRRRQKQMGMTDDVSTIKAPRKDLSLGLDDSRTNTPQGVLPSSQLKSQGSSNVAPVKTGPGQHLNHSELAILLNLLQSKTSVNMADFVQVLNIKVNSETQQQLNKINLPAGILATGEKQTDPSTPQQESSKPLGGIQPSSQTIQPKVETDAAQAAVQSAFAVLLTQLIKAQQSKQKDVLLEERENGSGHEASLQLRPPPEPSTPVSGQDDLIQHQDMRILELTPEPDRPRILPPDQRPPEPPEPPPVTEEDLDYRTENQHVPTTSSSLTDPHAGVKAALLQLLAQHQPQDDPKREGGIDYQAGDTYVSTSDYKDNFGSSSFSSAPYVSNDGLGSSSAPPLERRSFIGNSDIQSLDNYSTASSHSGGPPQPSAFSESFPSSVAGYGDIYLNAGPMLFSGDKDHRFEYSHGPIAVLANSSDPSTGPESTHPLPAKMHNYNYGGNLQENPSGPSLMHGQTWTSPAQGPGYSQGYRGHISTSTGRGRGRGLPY
T1 sequence (O75909 whole entry partner): as the sequence (O75909 whole entry partner) above

[4] = Liver microsome stability, dog; type: in vitro ADME; settings: liver microsomes
Description: as §1, §2, §3, §4, §5, §6

[5] = Liver microsome stability, human; type: in vitro ADME; settings: liver microsomes
Description: as §1, §2, §3, §4, §5, §6

[6] = target: T1, CDK13; assay: Western blot degradation of CDK13 (Example 2); type: cell-based; parameters: degradation of CDK12/13 protein in leukemia cells KASUMI-1, MV4-11, and Jurkat; endogenous in cells; settings: HCT116, colorectal cancer cells
[7] = Liver microsome stability, rat; type: in vitro ADME; settings: liver microsomes
Description: as §1, §2, §3, §4, §5, §6

## Cc1ncsc1-c1ccc([C@H](C)NC(=O)[C@@H]2C[C@@H](O)CN2C(=O)[C@@H](NC(=O)CN2CCN(c3ncc(-c4ccc(N(C(=O)NCc5ccccc5)[C@H]5CC[C@H](Nc6ccc(C#N)cn6)CC5)cc4)cn3)CC2)C(C)(C)C)cc1 [Formula 45]
[1]
  half-life: > 45 min
[2]; DC50 classes, cell line not given, read-out: CDK12 degradation Activity
  DC50: < 0.1 µM
[2]; FIGS. 2-9
  degradation of CDK12: has the strongest degradation effect
[2]; HCT116, colorectal cancer cells, read-out: CDK12 DC50
  DC50: 0.034 µM
[2]; KASUMI-1, leukemia cells, read-out: CDK12 DC50
  DC50: 0.028 µM
[2]; MDA-MB-231, breast cancer cells, read-out: CDK12 DC50
  DC50: 0.029 µM
[2]; MV4-11, leukemia cells, read-out: CDK12 DC50
  DC50: 0.03 µM
[3]; DC50 classes, cell line not given, read-out: CDK13 degradation Activity
  DC50: < 0.1 µM
[3]; FIGS. 2-9
  degradation of CDK13: has the strongest degradation effect
[3]; KASUMI-1, leukemia cells, read-out: CDK13 DC50
  DC50: 0.017 µM
[3]; MDA-MB-231, breast cancer cells, read-out: CDK13 DC50
  DC50: 0.018 µM
[3]; MV4-11, leukemia cells, read-out: CDK13 DC50
  DC50: 0.021 µM
[4]
  half-life: > 45 min
[5]
  half-life: > 45 min
[6]
  DC50: 0.024 µM
[7]
  half-life: > 45 min
